Measured values reported in PMC6149971, “In Vivo and In Vitro Activities and ADME-Tox Profile of a Quinolizidine-Modified 4-Aminoquinoline: A Potent Anti-P. falciparum and Anti-P. vivax Blood-Stage Antimalarial” (Molecules : A Journal of Synthetic Chemistry and Natural …, 2017).
Several values for one entry are separate records, joined by “and”; a condition that tells them apart may be missing. Equal values may be shown once.

Assays:
CYP2C9 = CYP2C9 (Homo sapiens, UniProt P11712); assay: in vitro
Sequence of CYP2C9 (P11712 whole entry): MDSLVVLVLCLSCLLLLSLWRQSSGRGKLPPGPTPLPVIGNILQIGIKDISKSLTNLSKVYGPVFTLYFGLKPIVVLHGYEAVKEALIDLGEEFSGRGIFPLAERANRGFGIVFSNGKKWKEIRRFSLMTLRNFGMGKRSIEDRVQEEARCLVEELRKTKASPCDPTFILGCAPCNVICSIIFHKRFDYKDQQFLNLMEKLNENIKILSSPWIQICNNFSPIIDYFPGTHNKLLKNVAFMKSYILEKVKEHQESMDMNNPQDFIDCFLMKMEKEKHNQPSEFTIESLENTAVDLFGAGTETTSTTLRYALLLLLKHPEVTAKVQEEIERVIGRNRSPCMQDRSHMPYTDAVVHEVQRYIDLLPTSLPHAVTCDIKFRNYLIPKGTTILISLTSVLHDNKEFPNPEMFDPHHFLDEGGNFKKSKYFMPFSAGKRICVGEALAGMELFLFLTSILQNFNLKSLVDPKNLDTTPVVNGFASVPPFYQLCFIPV

P. falciparum D10 (CQ-S) = system: P. falciparum D10 (CQ-S); design: method as in PMID 22901673; conditions: 72 h incubation, pLDH method, mean of 3 experiments; data already published; cited from earlier work
[1] = system: P. falciparum FCR3 (CQ-R); assay: In vitro chemosensitivity assay (pLDH), FCR3 strain; assay type: cell-based; conditions: Plasmodium falciparum, FCR3; 72 h incubation, pLDH method, mean of 3 experiments; read-out: P. falciparum IC50, FCR3
[2] = system: P. berghei ANKA transmission stages in Anopheles stephensi; assay: Transmission-blocking test, P. berghei/A. stephensi model; assay type: in vivo; conditions: 50 mg/kg oral
Description: (§1) (−)-AM1 was also tested in transmission-blocking and prophylactic studies using the P. berghei/A. stephensi model as described, with a few modifications.
For the transmission-blocking test, four BALB/c female mice (18–20 g) were infected i.p. with 10^7 P. berghei-infected red blood cells. Four days later, once confirmed for gametocyte carriage, two mice were treated with 50 mg/kg (−)-AM1, through the oral administration of 500 µL of a methylcellulose suspension, obtained by dissolving a 20 mg/mL ethanol stock solution in 0.5% methylcellulose to a final 9% ethanol concentration. Two mice received the vehicle only as controls. One hour after the treatment, mice were anesthetized and exposed to the bites of 100 sugar-starved female mosquitoes, at 20 °C. Ten days after the blood meal, samples of mosquito midguts from each treatment (n = 40) were dissected and P. berghei oocysts were manually counted using light microscopy at 400× magnification. Oocyst numbers were log-transformed and the geometric means were compared using the Student’s t-test.

[3] = Pharmacokinetics in CD-1 mice after oral administration; conditions: mouse, in vivo
P. berghei = assay: Prophylactic test, P. berghei/A. stephensi model; assay type: in vivo; conditions: 50 mg/kg per os for 4 days, infection by mosquito bites, days 5–9 post-infection
Description: as §1
For the prophylactic test, the experimental drugs were administered at 50 mg/kg per os for 4 consecutive days; 90 min after the last administration, mice were infected by 6–10 infective mosquito bites. Thick and thin Giemsa-stained smears were prepared and examined on days 5–10 post-infection to assess parasite density per μL of blood.

[4] = Microsome stability and metabolism studies, mouse; assay type: in vitro ADME; design: key: +: Metabolic Products Detected In Vitro and In Vivo; ND: Not detectable; conditions: (−)-AM1 1 μM, at 30 min
Description: (§2) Samples from the metabolic stability and metabolism studies were analyzed under the following conditions: UPLC interfaced with a Premiere XE triple Quadrupole Waters for stability studies, and Bruker Daltonics Ion Trap HCT Ultra for metabolic studies. A gradient from 2% to 100% (Water, MeOH, 5 mM Ammonium Acetate) over 2 min (stability) or 12 min (metabolism) in a C18 BEH (dimensions 1 by 50 mm for stability and 2.1 by 100 mm for metabolism, 1.7 µm column, 45 °C temperature, flow rate 0.5 mL/min) was used. For stability studies, the detection was performed in MRM (ESI positive, Q1/Q3 330.16/152.00, Cone Voltage 45 V; Extractor 5 V; Capillary 3.4 kV), while for metabolism studies, analysis was performed in Auto MS/MS mode (ESI positive; Capillary 109 V; Dry Temp 350 °C; Nebulizer 30 psi; Dry gas 10 L/min; HV capillary 500 V; Mass Accu time 500 µs; Mass range MS scan 100–600 amu, MS/MS 50–450 amu).
(§3) For stability and metabolism studies, test compounds were dissolved in DMSO, diluted at the final concentration of 1 µM, and pre-incubated in duplicate for 10 min at 37 °C in potassium phosphate buffer, pH 7.4, 3 mM MgCl2, with rat, mouse, and human hepatic microsomes (Xenotech Europe, Pfungstadt, Germany) at the final concentration of 0.5 mg/mL. The reaction was then started by adding the cofactor mixture of NADP, Glc6P, and G6P-DH, in the presence of UDPGA 1 mM in human microsomes to promote glucuronide formation. Acetonitrile (with verapamil as internal standard) was added to the samples at the times time 0 and 30 min to stop the reaction. Samples were then centrifuged and the supernatants analysed and quantified by LC-MS/MS. Reference compounds of known metabolic stability, 7-ethoxycoumarin (7-EC) and propranolol, were used as controls.
(§4) The percentage of the area of test compounds remaining after 30 min incubation was calculated in respect to the area of compounds at time = 0 min. […] Samples were re-analyzed by acquiring the daughter scan of the potential metabolites found during the full scan acquisition.

[5] = system: P. falciparum TM91C235 (multidrug-resistant); assay: In vitro chemosensitivity assay (pLDH), TM91C235 strain; assay type: cell-based; conditions: Plasmodium falciparum; 72 h incubation, pLDH method, mean of 3 experiments; read-out: P. falciparum IC50, TM91C235
[6] = Pharmacokinetics in CD-1 mice after oral administration; assay type: in vivo, mouse; conditions: male, CD-1, mouse, in vivo, po, 10 mg/kg
Description: Samples from the pharmacokinetic studies were analyzed under the following conditions: UPLC interfaced with a Premiere XE triple Quadrupole, Waters. A gradient from 2 to 100% (Water, MeOH, 5 mM Ammonium Acetate) over 1.3 min was used in Acquity HSS T3 (dimensions 2.1 by 50 mm, 1.8 µm column, 40 °C temperature, flow rate 0.5 mL/min). Detection was performed in MRM (ESI positive, Q1/Q3 330.16/152.00, Cone Voltage 45 V; Extractor 5 V; Capillary 3.4 kV). The limit of detection was 1 ng/mL. Pharmacokinetic parameters were determined by Non-Compartmental Analysis, using the linear trapezoidal rule and uniform weight.
Pharmacokinetic data were collected in mice by testing the racemate and the enantiomers at the same single dose, and vehicle-utilized for in vivo studies (see composition in paragraph 4.4). Briefly, male CD-1 mice (Charles River Laboratories) weighing 18–22 g received single dose (10 mg/kg) oral administrations of the AM1 racemate and single enantiomers, each dissolved in SSV. For each experiment, twenty-four mice/dose and three mice/time-point were used. Blood samples were collected at eight selected time-points (15, 30 and 60 min; 2, 4, 6, 8 and 24 h) under ethyl ether anaesthesia. The heparinized tubes containing blood samples were immediately placed on ice and centrifuged, and the supernatant collected and frozen at −80 °C prior to analysis. Pharmacokinetic plasma samples (spiked with internal standard) were filtered (Sirocco filter plate, Waters) under vacuum, and 5 µL analysed by LC-MS/MS.

[7] = Microsome stability and metabolism studies, rat; assay type: in vitro ADME; design: key: +: Metabolic Products Detected In Vitro and In Vivo; ND: Not detectable; conditions: (−)-AM1 1 μM, at 30 min
Description: as §2, §3, §4

Compound: Clc1ccc2c(NC[C@@H]3CCCN4CCCC[C@H]34)ccnc2c1 [(−)-AM1, 7-chloro-N-(((1S,9aR)-octahydro-1H-quinolizin-1-yl)methyl)quinolin-4-amine]
- inhibition at 3 µM (CYP2C9): < 5%
- IC50 (P. falciparum D10 (CQ-S)): 24 nM
- IC50 [1]: 23.3 nM
- infection intensity, average number of oocysts per midgut ([2]; BALB/c mice, read after 10 days, control 39.17, p = 0.24): 54.11 (CI95 39.77–68.45) oocysts
- transmission-blocking activity ([2]; P. berghei/A. stephensi model): does not show transmission-blocking or prophylactic activity
- dose proportionality of oral pharmacokinetics [3]: dose proportionality was displayed
- parasitaemia versus control mice, prophylactic activity (P. berghei): no significant differences in parasitaemia
- Metabolic products detected, in vitro microsomes, mouse [4]: +
- IC50 [5]: 16.7 nM
- AUC(0-t) [6]: 0.313 µM·h and 103 ng·h/mL
- Cmax [6]: 84 nM and 27.6 ng/mL
- MRT last [6]: 3.33 h
- Tmax [6]: 0.25 h
- Metabolic products detected, in vitro microsomes, rat [7]: +
